What was measured:
CT26 cancer cell tumours = assay: CT26 syngeneic model of mouse colorectal cancer in Balb/c mice; assay type: in vivo; conditions: compounds 30 mg/kg oral daily day 7-23; anti PD-1 i.p. 20 mg/kg day 8, 10 mg/kg days 13, 19, 22
Protocol: Male Balb/c mice 4-6 weeks old were housed five per cage in a temperature and humidity controlled room with a 12h/12h light/dark cycle. Throughout the experiment the animals had free access to food and water. The Balb/c mice were randomly divided into 6 groups (n=15 in each group): vehicle, Compound 1, Compound 2, anti PD-1, Compound 1+anti PD-1, Compound 2+anti PD-1 group.
CT26 cells were purchased from ATCC and cultured in Dulbecco's Modified Eagle's Medium (DMEM; ThermoFisher Scientific) supplemented with 10% fetal bovine serum (FBS; Sigma Aldrich) at 37° C. in an incubator with 5% CO2. Cells were sub-cultured twice a week until the number of cells needed for inoculation was obtained.
On the day of transplantation (day 0) logarithmic growing phase cells were harvested, diluted in PBS and 10^6 cells in 0.2 ml of PBS were subcutaneously inoculated into the lateral abdominal region of each mouse using a 26G syringe.
On day 7 after inoculation the mice were randomized into the 6 treatment groups each of 15 animals receiving respectively vehicle, Compound 1, Compound 2, anti PD-1 and the combination therapies. […]
Tumour sizes (mm^3) were evaluated twice a week by using a digital caliper. The tumour volumes were calculated measuring the tumour lengths along the major and minor axis and using the formula: Volume=[[…]]/2.

[1] = target: human recombinant EP4 receptor (Homo sapiens, UniProt P35408); assay: [3H]-PGE2 specific binding on human recombinant EP4 receptor (HEK293 membranes)
Protocol: Cell membranes were prepared from HEK293 cell line (Human Embryonic Kidney 293) stably overexpressing human recombinant EP4 receptor. Cells grow adherent in DMEM with Glutamax | containing 10% FBS at 37° C. with 5% CO2. For membranes preparation, culture medium was aspirated from 150 cm^2 flasks in which cells were seeded. Cell monolayers were washed with 10 ml of hypotonic lysis buffer (TRIS 5 mM+EDTA 5 mM-pH 7.4), then cells were detached and lysed with the same buffer and by mechanical scraping. Lysates were centrifuged at 40000×g at 4° C. for 22 min. Pellets were stored at −80° C. until the use.
[3H]-Prostaglandin E2 ([3H]-PGE2) binding assays were performed in 10 mM MES-KOH buffer pH6, containing 10 mM MgCl2 and 1 mM CaCl2. Ten microgram of protein from membrane fractions are incubated in a total volume of 0.1 ml with 1 nM [3H]-PGE2. In order to determine the total binding or the non specific binding, 1% DMSO or 1 μM PGE2 were added to reaction mixtures, respectively. The specific binding represented >85% of total binding. In competition curves, the diluent was substituted by the test compounds (8 concentration spanning at least 2 order of magnitude; points in duplicates). In an independent series of experiments, competition curves of the same compounds were performed in the presence of Bovine Serum Albumin 0.5%. Incubation was carried out in a 96 multiwell plate for 90 min at room temperature, prior to separation of the bound and free radioligand by rapid filtration on glass fiber filters (Unifilter GFB96, PerkinElmer Inc) pre-soaked in 0.3% polyethyleneimine. Filters were washed with ice cold buffer pH 7.4 (50 mM HEPES, NaCl 500 mM, BSA 0.1%), dried for 30 minutes at 30° C. and then 0.1 ml of MICROSCINT-20 (PerkinElmer Inc) were added. The residual [3H]-PGE2 binding was determined by solid scintillation counter (TopCount, PerkinElmer Inc), after at least 1 hour of stabilization. Results of the competition curves were expressed as IC50 and the corresponding Ki were calculated according to the Chang-Prousoff equation. Finally the Ki value was transformed in pKi (the negative log of Ki).

human recombinant EP4 receptor, sequence (P35408 whole entry): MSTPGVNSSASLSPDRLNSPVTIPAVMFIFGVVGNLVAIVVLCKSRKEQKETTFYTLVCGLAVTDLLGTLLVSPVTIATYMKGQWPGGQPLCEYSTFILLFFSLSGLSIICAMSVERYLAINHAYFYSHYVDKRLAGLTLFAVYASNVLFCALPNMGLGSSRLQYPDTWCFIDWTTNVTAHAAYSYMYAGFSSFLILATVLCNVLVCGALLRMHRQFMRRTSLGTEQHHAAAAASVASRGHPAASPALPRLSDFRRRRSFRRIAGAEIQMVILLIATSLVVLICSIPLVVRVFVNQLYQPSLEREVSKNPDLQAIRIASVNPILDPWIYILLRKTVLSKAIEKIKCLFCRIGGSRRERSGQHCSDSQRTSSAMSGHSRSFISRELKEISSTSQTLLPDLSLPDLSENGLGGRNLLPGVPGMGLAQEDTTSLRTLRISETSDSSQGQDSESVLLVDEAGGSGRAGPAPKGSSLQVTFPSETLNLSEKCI

Compound: O=C([O-])c1ccc(C2(NC(=O)[C@H]3CCCCN3Cc3ccc(C(F)(F)F)cc3)CC2)cc1.[Na+] [Compound 2, (R)-4-(1-(1-(4-(trifluoromethyl)benzyl)piperidine-2-carboxamido)cyclopropyl)benzoic acid, Sodium salt]
- effect on tumour growth (tumour volume) (CT26 cancer cell tumours): only showed a slight impairment of tumour growth
- Ki ([1]; BSA 0.5%): 0.2 µM
- lower affinity in the presence of proteins (BSA) ([1]; BSA 0.5% vs none): 6 fold
- Ki ([1]; None (absence of BSA)): 0.0316 µM
